# Data as given in ChEMBL document CHEMBL5104178, “Nitroimidazopyrazinones with Oral Activity against Tuberculosis and Chagas Disease in Mouse Models of Infection” (J Med Chem, 2022).
# How the values were obtained:
# [1] = Solubility of compound in water by LC-UV analysis; assay type: physicochemical
# [2] = tested on: Mycobacterium tuberculosis; experiment: Antimycobacterial activity against Mycobacterium tuberculosis H37Rv ATCC 27294 assessed as bacterial growth inhibition incubated for 5 days under normoxic condition by resazurin microtiter assay; assay type: functional; conditions: H37Rv ATCC 27294, 120 h, time 5 day
# [3] = tested on: Mycobacterium tuberculosis; experiment: Antimycobacterial activity against Mycobacterium tuberculosis H37Ra ATCC 25177 assessed as bacterial growth inhibition incubated for 6 days under normoxic condition by resazurin microtiter assay; assay type: functional; conditions: H37Ra ATCC 25177, 144 h, time 6 day
# Mycobacterium avium = experiment: Antimycobacterial activity against Mycobacterium avium ATCC 25291 assessed as bacterial growth inhibition incubated for 6 days under normoxic condition by resazurin microtiter assay; assay type: functional; conditions: ATCC 25291, 144 h, time 6 day
# [4] = tested on: Mycolicibacterium smegmatis; experiment: Antimycobacterial activity against Mycobacterium smegmatis mc2155 ATCC 700084 assessed as bacterial growth inhibition incubated for 24 hrs under normoxic condition by resazurin microtiter assay; assay type: functional
# [5] = tested on: Mycobacterium tuberculosis; experiment: Antimycobacterial activity against Mycobacterium tuberculosis H37Rv ATCC 27294 assessed as bacterial growth inhibition incubated for 5 days under hypoxic condition by resazurin microtiter assay; assay type: functional; conditions: H37Rv ATCC 27294, 120 h, time 5 day
# [6] = tested on: Mycobacterium tuberculosis; experiment: Substrate activity at Mycobacterium tuberculosis Ddn expressed in Escherichia coli BL21 (DE3) assessed as oxidation of F420H2 by measuring Kcat by spectrophotometric analysis
# [7] = tested on: Mycobacterium tuberculosis; experiment: Substrate activity at Mycobacterium tuberculosis Ddn expressed in Escherichia coli BL21 (DE3) assessed as oxidation of F420H2 by measuring Km by spectrophotometric analysis
# [8] = tested on: Mycobacterium tuberculosis; experiment: Substrate activity at Mycobacterium tuberculosis Ddn expressed in Escherichia coli BL21 (DE3) assessed as oxidation of F420H2 by measuring Kcat/Km by spectrophotometric analysis
# [9] = Plasma protein binding in human; assay type: ADME, cell-free; conditions: read-out: PPB (converted)
# [10] = Plasma protein binding in mouse; assay type: ADME, cell-free; conditions: read-out: PPB (converted)
# [11] = Cmax in CD-1 mouse at 20 mg/kg, po administered as DMSO/PEG400 formulation measured upto 24 hrs by LC-MS/MS analysis; assay type: ADME, organism-based; set-up: dose 20 mg/kg, time < 24 hrs, route po; conditions: in vivo
# [12] = AUC(0 to 8 hrs) in CD-1 mouse at 20 mg/kg, po administered as DMSO/PEG400 formulation measured upto 24 hrs by LC-MS/MS analysis; assay type: ADME, organism-based; set-up: dose 20 mg/kg, time < 24 hrs, route po; conditions: in vivo
# [13] = Tmax in CD-1 mouse at 20 mg/kg, po administered as DMSO/PEG400 formulation measured upto 24 hrs by LC-MS/MS analysis; assay type: ADME, organism-based; conditions: in vivo
# [14] = Oral bioavailability in CD-1 mouse at 20 mg/kg administered as DMSO/PEG400 formulation measured upto 24 hrs by LC-MS/MS analysis; assay type: ADME, organism-based; conditions: in vivo
# [15] = Volume of distribution at steady state in CD-1 mouse at 5 mg/kg, iv administered as DMSO/PEG400 formulation measured upto 24 hrs by LC-MS/MS analysis; assay type: ADME, organism-based; conditions: in vivo, read-out: Vdss
# [16] = Clearance in CD-1 mouse at 5 mg/kg, iv administered as DMSO/PEG400 formulation measured upto 24 hrs by LC-MS/MS analysis; assay type: ADME, organism-based; conditions: in vivo
# [17] = Half life in CD-1 mouse at 5 mg/kg, iv administered as DMSO/PEG400 formulation measured upto 24 hrs by LC-MS/MS analysis; assay type: ADME, organism-based; conditions: in vivo
# [18] = tested on: Mycobacterium tuberculosis; experiment: Antimycobacterial activity against Mycobacterium tuberculosis infected in BALB/c mouse assessed as log reduction in bacterial load in lung by measuring colony forming unit at 12.5 mg/kg, po administered 5 days per week for 3 weeks starting from day 10 post infection (reference value: 8.8 x 10^3 CFU); assay type: functional
# [19] = tested on: Mycobacterium tuberculosis; experiment: Antimycobacterial activity against Mycobacterium tuberculosis infected in BALB/c mouse assessed as log reduction in bacterial load in lung by measuring colony forming unit at 25 mg/kg, po administered 5 days per week for 3 weeks starting from day 10 post infection (reference value: 8.8 x 10^3 CFU); assay type: functional
# [20] = tested on: Mycobacterium tuberculosis; experiment: Antimycobacterial activity against Mycobacterium tuberculosis infected in BALB/c mouse assessed as log reduction in bacterial load in lung by measuring colony forming unit at 50 mg/kg, po administered 5 days per week for 3 weeks starting from day 10 post infection (reference value: 8.8 x 10^3 CFU); assay type: functional
# [21] = Toxicity in BALB/c mouse infected with Mycobacterium tuberculosis assessed as mortality at 12.5 to 50 mg/kg, po administered 5 days per week for 3 weeks starting from day 10 post infection; assay type: organism-based; conditions: in vivo, 504 h, dose 12.5-50 mg/kg
# [22] = Toxicity in BALB/c mouse infected with Mycobacterium tuberculosis assessed as body weight loss at 12.5 to 50 mg/kg, po administered 5 days per week for 3 weeks starting from day 10 post infection; assay type: organism-based; conditions: in vivo, 120 h, dose 12.5-50 mg/kg, time 5 day
# [23] = tested on: Mycobacterium tuberculosis; experiment: Antimycobacterial activity against Mycobacterium tuberculosis H37Rv ATCC 27294 assessed as bacterial growth inhibition at 0.125 to 8 ug/ml incubated for 5 days under hypoxic condition by resazurin microtiter assay relative to control; assay type: functional; conditions: dose 0.125-8 µg/ml; time 5 day; at 0.125 to 8 µg/mL
# [24] = Cmax in CD-1 mouse at 25 mg/kg, po measured upto 48 hrs by LC/MS/MS analysis; assay type: ADME, organism-based; set-up: time < 48 hrs, dose 25 mg/kg, route po; conditions: in vivo
# [25] = AUC (0 to last) in CD-1 mouse at 25 mg/kg, po measured upto 48 hrs by LC/MS/MS analysis; assay type: ADME, organism-based; set-up: dose 25 mg/kg, time < 48 hrs, route po; conditions: in vivo
# [26] = Tmax in CD-1 mouse at 25 mg/kg, po measured upto 48 hrs by LC/MS/MS analysis; assay type: ADME, organism-based; conditions: in vivo
# [27] = Half life in CD-1 mouse at 25 mg/kg, po measured upto 48 hrs by LC/MS/MS analysis; assay type: ADME, organism-based; conditions: in vivo
# [28] = Oral bioavailability in CD-1 mouse at 25 mg/kg measured upto 48 hrs by LC/MS/MS analysis; assay type: ADME, organism-based; conditions: in vivo
# [29] = Volume of distribution at steady state in CD-1 mouse at 10 mg/kg, iv measured upto 48 hrs by LC/MS/MS analysis; assay type: ADME, organism-based; conditions: in vivo, read-out: Vdss
# [30] = Clearance in CD-1 mouse at 10 mg/kg, iv measured upto 48 hrs by LC/MS/MS analysis; assay type: ADME, organism-based; conditions: in vivo
# [31] = Half life in CD-1 mouse at 10 mg/kg, iv measured upto 48 hrs by LC/MS/MS analysis; assay type: ADME, organism-based; conditions: in vivo
# [32] = Cmax in CD-1 mouse at 20 mg/kg, po administered as DMSO/PEG400/Cremophor RH40/water formulation measured upto 24 hrs by LC-MS/MS analysis; assay type: ADME, organism-based; set-up: dose 20 mg/kg, time < 24 hrs, route po; conditions: in vivo
# [33] = AUC(0 to 8 hrs) in CD-1 mouse at 20 mg/kg, po administered as DMSO/PEG400/Cremophor RH40/water formulation measured upto 24 hrs by LC-MS/MS analysis; assay type: ADME, organism-based; set-up: time < 24 hrs, dose 20 mg/kg, route po; conditions: in vivo
# [34] = Tmax in CD-1 mouse at 20 mg/kg, po administered as DMSO/PEG400/Cremophor RH40/water formulation measured upto 24 hrs by LC-MS/MS analysis; assay type: ADME, organism-based; conditions: in vivo
# [35] = Half life in CD-1 mouse at 20 mg/kg, po administered as DMSO/PEG400/Cremophor RH40/water formulation measured upto 24 hrs by LC-MS/MS analysis; assay type: ADME, organism-based; conditions: in vivo
# [36] = Oral bioavailability in CD-1 mouse at 20 mg/kg administered as DMSO/PEG400/Cremophor RH40/water formulation measured upto 24 hrs by LC-MS/MS analysis; assay type: ADME, organism-based; conditions: in vivo
# [37] = Volume of distribution at steady state in CD-1 mouse at 5 mg/kg, iv administered as DMSO/PEG400/Cremophor RH40/water formulation measured upto 24 hrs by LC-MS/MS analysis; assay type: ADME, organism-based; conditions: in vivo, read-out: Vdss
# [38] = Clearance in CD-1 mouse at 5 mg/kg, iv administered as DMSO/PEG400/Cremophor RH40/water formulation measured upto 24 hrs by LC-MS/MS analysis; assay type: ADME, organism-based; conditions: in vivo
# [39] = Half life in CD-1 mouse at 5 mg/kg, iv administered as DMSO/PEG400/Cremophor RH40/water formulation measured upto 24 hrs by LC-MS/MS analysis; assay type: ADME, organism-based; conditions: in vivo
smiles,measurement,setting,value
O=c1c2nc([N+](=O)[O-])cn2ccn1Cc1cccc(C(F)(F)F)c1,solubility,"[1]; water, read-out: solubility",2.9 µM
same,MIC,[2],0.063 µg/mL
same,MIC,[3],≤ 0.016 µg/mL
same,MIC,Mycobacterium avium,> 32 µg/mL
same,MIC,[4],> 32 µg/mL
same,MIC,[5],0.25 µg/mL
same,kcat,[6],1.6 10^-2/s
same,Km,[7],9.4 µM
same,kcat/Km,[8],1650 M⁻¹ s⁻¹
same,fraction unbound,[9],0.04
same,fraction unbound,[10],0.08
same,Cmax,[11],3400 ng/mL
same,AUC(0-t) at 24 h,[12],20800 ng·h/mL
same,Tmax,[13],2.7 h
same,bioavailability,[14],64%
same,Vd,[15],1.2 L/kg
same,clearance,[16],7.66 mL/min/kg
same,half-life,[17],1.9 h
same,log(activity),[18],0.75
same,log(activity),[19],1.1
same,log(activity),[20],1.7
same,Activity,[21],Non-Toxic
same,Activity,[22],Non-Toxic
Cc1cccc(Cn2ccn3cc([N+](=O)[O-])nc3c2=O)c1,MIC,[2],0.063 µg/mL
same,MIC,[3],≤ 0.016 µg/mL
same,MIC,Mycobacterium avium,> 32 µg/mL
same,MIC,[4],> 32 µg/mL
same,inhibition (INH),[23],70%
O=[N+]([O-])c1cn2c(n1)OC[C@@H](OCc1ccc(OC(F)(F)F)cc1)C2 [PRETOMANID],MIC,[3],≤ 0.016 µg/mL
same,MIC,Mycobacterium avium,> 32 µg/mL
same,MIC,[4],> 32 µg/mL
same,kcat,[6],9.3 10^-3/s
same,Km,[7],7.3 µM
same,kcat/Km,[8],1260 M⁻¹ s⁻¹
same,Cmax,[24],6000 ng/mL
same,AUC(0-t) at 48 h,[25],50900 ng·h/mL
same,Tmax,[26],2 h
same,half-life,[27],2.7 h
same,bioavailability,[28],100%
same,Vd,[29],1.6 L/kg
same,clearance,[30],12.1 mL/min/kg
same,half-life,[31],1.6 h
O=c1[nH]c(-c2ccccc2)cn2cc([N+](=O)[O-])nc12,solubility,[1]; buffer,27 µM
same,MIC,[2],> 32 µg/mL
same,MIC,[3],> 32 µg/mL
same,MIC,Mycobacterium avium,> 32 µg/mL
same,MIC,[4],> 32 µg/mL
same,MIC,[5],> 32 µg/mL
same,kcat,[6],1.3 10^-3/s
same,Km,[7],164 µM
same,kcat/Km,[8],8.1 M⁻¹ s⁻¹
same,Cmax,[32],13000 ng/mL
same,AUC(0-t) at 24 h,[33],88300 ng·h/mL
same,Tmax,[34],2 h
same,half-life,[35],3.2 h
same,bioavailability,[36],87%
same,Vd,[37],0.34 L/kg
same,clearance,[38],3.38 mL/min/kg
same,half-life,[39],1.2 h
